Measured values published in PMC10838953.
“And” between values parts separate entries of the source, which are not always exact repeats. Identical values can stand only once.

Experiments:
EGFR(L747-T751del,Sins) = EGFR(L747-T751del,Sins) (Homo sapiens, UniProt P00533, DEL747-750/T751S); test: biochemical; conditions: read-out: %Ctrl @ 2000nM
TGFBR2 = TGFBR2 (Homo sapiens, UniProt P37173); test: biochemical; conditions: read-out: %Ctrl @ 2000nM
MST1 = MST1 (Homo sapiens, UniProt Q13043); test: biochemical; conditions: read-out: %Ctrl @ 2000nM
MRCKB = MRCKB (Homo sapiens, UniProt Q9Y5S2); test: biochemical; conditions: read-out: %Ctrl @ 2000nM
Sequence of MRCKB (Q9Y5S2 whole entry): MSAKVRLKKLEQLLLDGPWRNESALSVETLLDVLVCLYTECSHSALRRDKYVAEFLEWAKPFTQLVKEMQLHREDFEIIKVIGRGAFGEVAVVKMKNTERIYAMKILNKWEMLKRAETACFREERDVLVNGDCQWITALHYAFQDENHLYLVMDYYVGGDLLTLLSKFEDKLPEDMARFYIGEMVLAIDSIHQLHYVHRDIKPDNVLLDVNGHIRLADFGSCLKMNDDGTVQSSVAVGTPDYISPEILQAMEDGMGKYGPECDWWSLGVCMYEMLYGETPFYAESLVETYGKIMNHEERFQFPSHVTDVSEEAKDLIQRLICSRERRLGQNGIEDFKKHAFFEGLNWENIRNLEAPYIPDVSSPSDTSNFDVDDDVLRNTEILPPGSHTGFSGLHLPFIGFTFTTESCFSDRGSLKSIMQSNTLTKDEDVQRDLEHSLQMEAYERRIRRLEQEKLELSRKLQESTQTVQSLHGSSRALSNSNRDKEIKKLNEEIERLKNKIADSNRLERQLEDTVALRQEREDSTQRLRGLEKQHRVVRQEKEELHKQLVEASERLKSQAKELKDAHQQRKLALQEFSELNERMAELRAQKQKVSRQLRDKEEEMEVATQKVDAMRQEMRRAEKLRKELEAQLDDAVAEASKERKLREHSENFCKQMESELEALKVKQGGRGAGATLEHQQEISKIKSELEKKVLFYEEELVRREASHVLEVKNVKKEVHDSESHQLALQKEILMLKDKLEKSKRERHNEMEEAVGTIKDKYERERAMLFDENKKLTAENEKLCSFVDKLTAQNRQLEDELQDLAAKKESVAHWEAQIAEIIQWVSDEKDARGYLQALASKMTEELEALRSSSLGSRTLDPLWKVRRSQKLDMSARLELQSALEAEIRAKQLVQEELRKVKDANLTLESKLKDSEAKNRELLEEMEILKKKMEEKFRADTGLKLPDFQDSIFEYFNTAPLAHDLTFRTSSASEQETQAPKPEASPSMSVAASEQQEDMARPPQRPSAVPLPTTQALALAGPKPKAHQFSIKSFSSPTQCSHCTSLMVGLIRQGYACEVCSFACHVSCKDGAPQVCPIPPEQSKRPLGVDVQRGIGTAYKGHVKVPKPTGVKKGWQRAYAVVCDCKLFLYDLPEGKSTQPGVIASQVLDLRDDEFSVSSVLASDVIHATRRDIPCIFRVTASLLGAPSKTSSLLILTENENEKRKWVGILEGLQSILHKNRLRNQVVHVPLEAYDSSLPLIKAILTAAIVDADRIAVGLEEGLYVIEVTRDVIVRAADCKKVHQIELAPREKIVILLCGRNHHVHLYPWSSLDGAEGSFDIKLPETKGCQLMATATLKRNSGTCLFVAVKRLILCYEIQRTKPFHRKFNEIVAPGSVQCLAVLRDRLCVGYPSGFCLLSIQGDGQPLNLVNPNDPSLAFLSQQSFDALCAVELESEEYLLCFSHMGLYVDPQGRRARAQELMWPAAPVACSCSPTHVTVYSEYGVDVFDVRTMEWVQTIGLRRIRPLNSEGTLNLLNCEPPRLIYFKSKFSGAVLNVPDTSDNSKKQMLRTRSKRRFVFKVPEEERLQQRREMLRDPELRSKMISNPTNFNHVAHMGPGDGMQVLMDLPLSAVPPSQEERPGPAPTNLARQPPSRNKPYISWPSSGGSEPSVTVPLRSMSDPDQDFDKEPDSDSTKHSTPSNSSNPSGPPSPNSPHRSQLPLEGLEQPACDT

[1] = molecular target: ABL1(H396P)-nonphosphorylated (Homo sapiens, UniProt P00519, H396P); test: biochemical; conditions: read-out: %Ctrl @ 2000nM
PIK3CA(E542K) = PIK3CA(E542K) (Homo sapiens, UniProt P42336, E542K); test: biochemical; conditions: read-out: %Ctrl @ 2000nM
PFTK1 = PFTK1 (Homo sapiens, UniProt O94921); test: biochemical; conditions: read-out: %Ctrl @ 2000nM
WNK3 = WNK3 (Homo sapiens, UniProt Q9BYP7); test: biochemical; conditions: read-out: %Ctrl @ 2000nM
GRK1 = GRK1 (Homo sapiens, UniProt Q15835); test: biochemical; conditions: read-out: %Ctrl @ 2000nM
CAMK2B = CAMK2B (Homo sapiens, UniProt Q13554); test: biochemical; conditions: read-out: %Ctrl @ 2000nM
MAP4K5 = MAP4K5 (Homo sapiens, UniProt Q9Y4K4); test: biochemical; conditions: read-out: %Ctrl @ 2000nM
Sequence of MAP4K5 (Q9Y4K4 whole entry): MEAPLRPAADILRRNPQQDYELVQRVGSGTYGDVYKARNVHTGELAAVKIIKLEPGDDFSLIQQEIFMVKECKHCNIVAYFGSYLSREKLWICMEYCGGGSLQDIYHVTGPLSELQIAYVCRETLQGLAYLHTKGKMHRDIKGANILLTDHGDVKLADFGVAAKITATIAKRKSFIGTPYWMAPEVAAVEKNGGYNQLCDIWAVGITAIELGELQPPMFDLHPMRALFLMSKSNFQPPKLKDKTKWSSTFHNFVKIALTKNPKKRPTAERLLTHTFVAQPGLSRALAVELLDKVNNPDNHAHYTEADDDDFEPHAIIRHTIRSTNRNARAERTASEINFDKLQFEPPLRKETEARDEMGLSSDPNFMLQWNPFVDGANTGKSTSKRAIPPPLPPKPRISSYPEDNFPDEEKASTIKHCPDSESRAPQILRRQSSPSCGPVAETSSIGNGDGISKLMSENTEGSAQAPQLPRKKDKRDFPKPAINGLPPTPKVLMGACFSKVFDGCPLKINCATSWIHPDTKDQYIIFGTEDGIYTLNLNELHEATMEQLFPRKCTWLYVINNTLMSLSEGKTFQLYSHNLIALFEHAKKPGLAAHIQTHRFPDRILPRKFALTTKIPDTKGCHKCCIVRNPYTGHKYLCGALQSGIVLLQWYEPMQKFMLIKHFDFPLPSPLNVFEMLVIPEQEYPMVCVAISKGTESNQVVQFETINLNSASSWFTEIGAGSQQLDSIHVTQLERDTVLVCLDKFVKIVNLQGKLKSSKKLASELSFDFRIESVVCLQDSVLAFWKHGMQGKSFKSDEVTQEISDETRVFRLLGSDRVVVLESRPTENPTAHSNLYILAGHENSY

[2] = molecular target: RSK3(Kin.Dom.1-N-terminal) (Homo sapiens, UniProt Q15349); test: biochemical; conditions: read-out: %Ctrl @ 2000nM
DAPK1 = DAPK1 (Homo sapiens, UniProt P53355); test: biochemical; conditions: read-out: %Ctrl @ 2000nM
TNK1 = TNK1 (Homo sapiens, UniProt Q13470); test: biochemical; conditions: read-out: %Ctrl @ 2000nM
ERN1 = ERN1 (Homo sapiens, UniProt O75460); test: biochemical; conditions: read-out: %Ctrl @ 2000nM
[3] = test system: AKT (S129) in 786-O cells
YSK4 = YSK4 (Homo sapiens, UniProt Q56UN5); test: biochemical; conditions: read-out: %Ctrl @ 2000nM
FER = FER (Homo sapiens, UniProt P16591); test: biochemical; conditions: read-out: %Ctrl @ 2000nM
PAK7 = PAK7 (Homo sapiens, UniProt Q9P286); test: biochemical; conditions: read-out: %Ctrl @ 2000nM
PKNB(M.tuberculosis) = PKNB(M.tuberculosis) (Mycobacterium tuberculosis, UniProt P9WI81); test: biochemical; conditions: read-out: %Ctrl @ 2000nM
SgK110 = SgK110 (Homo sapiens, UniProt P0C264); test: biochemical; conditions: read-out: %Ctrl @ 2000nM
Sequence of SgK110 (P0C264 whole entry): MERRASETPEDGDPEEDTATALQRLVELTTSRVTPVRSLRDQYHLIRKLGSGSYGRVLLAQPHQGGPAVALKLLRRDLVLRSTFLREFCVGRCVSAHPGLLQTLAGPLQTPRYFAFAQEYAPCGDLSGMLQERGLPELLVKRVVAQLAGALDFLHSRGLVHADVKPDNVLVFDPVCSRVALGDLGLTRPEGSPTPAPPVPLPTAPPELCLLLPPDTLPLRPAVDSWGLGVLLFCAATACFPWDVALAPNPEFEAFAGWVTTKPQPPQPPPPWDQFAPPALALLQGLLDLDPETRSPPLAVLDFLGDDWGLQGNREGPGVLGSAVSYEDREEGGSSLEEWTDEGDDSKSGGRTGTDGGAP

FGFR4 = FGFR4 (Homo sapiens, UniProt P22455); test: biochemical; conditions: read-out: %Ctrl @ 2000nM
Sequence of FGFR4 (P22455 22-802): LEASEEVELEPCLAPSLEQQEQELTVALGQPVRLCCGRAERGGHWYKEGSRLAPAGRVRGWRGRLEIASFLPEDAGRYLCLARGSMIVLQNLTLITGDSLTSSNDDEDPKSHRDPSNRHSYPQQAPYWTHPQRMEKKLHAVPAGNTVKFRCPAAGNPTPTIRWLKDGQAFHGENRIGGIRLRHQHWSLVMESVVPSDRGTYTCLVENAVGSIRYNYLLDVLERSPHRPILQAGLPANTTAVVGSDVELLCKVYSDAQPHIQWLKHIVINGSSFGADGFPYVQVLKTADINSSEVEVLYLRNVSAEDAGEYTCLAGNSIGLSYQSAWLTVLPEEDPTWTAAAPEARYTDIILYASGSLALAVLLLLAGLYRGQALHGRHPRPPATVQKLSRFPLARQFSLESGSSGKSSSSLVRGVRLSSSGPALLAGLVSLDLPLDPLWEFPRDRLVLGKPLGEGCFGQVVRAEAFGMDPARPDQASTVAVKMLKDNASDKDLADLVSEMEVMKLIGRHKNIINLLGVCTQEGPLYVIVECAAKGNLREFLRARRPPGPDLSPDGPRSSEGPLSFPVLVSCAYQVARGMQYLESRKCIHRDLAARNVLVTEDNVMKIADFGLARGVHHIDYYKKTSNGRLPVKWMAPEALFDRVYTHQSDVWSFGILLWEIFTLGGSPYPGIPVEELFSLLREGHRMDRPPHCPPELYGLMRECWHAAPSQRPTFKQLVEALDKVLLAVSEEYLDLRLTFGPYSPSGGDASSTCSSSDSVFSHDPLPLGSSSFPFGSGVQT

MLK3 = MLK3 (Homo sapiens, UniProt Q16584); test: biochemical; conditions: read-out: %Ctrl @ 2000nM
CAMK2G = CAMK2G (Homo sapiens, UniProt Q13555); test: biochemical; conditions: read-out: %Ctrl @ 2000nM
[4] = molecular target: ABL1(H396P)-phosphorylated (Homo sapiens, UniProt P00519, H396P); test: biochemical; conditions: read-out: %Ctrl @ 2000nM
[5] = molecular target: RSK3(Kin.Dom.2-C-terminal) (Homo sapiens, UniProt Q15349); test: biochemical; conditions: read-out: %Ctrl @ 2000nM
ALK = ALK (Homo sapiens, UniProt Q9UM73); test: biochemical; conditions: read-out: %Ctrl @ 2000nM
ERK1 = ERK1 (Homo sapiens, UniProt P27361); test: biochemical; conditions: read-out: %Ctrl @ 2000nM
CSNK2A2 (CK2α′) = CSNK2A2 (CK2α′) (Homo sapiens, UniProt P19784); test: biochemical
Sequence of CSNK2A2 (CK2α′) (P19784 whole entry): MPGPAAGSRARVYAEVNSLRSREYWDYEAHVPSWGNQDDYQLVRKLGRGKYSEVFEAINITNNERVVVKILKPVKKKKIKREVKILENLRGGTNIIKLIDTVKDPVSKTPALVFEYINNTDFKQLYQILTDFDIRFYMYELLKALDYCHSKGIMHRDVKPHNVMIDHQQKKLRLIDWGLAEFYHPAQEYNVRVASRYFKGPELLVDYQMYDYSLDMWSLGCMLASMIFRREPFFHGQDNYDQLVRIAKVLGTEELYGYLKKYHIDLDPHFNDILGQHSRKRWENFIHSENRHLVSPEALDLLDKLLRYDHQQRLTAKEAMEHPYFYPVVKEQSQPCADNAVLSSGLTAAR

EPHA8 = EPHA8 (Homo sapiens, UniProt P29322); test: biochemical; conditions: read-out: %Ctrl @ 2000nM
DCAMKL2 = DCAMKL2 (Homo sapiens, UniProt Q8N568); test: biochemical; conditions: read-out: %Ctrl @ 2000nM
PRKD2 = PRKD2 (Homo sapiens, UniProt Q9BZL6); test: biochemical; conditions: read-out: %Ctrl @ 2000nM
Sequence of PRKD2 (Q9BZL6 whole entry): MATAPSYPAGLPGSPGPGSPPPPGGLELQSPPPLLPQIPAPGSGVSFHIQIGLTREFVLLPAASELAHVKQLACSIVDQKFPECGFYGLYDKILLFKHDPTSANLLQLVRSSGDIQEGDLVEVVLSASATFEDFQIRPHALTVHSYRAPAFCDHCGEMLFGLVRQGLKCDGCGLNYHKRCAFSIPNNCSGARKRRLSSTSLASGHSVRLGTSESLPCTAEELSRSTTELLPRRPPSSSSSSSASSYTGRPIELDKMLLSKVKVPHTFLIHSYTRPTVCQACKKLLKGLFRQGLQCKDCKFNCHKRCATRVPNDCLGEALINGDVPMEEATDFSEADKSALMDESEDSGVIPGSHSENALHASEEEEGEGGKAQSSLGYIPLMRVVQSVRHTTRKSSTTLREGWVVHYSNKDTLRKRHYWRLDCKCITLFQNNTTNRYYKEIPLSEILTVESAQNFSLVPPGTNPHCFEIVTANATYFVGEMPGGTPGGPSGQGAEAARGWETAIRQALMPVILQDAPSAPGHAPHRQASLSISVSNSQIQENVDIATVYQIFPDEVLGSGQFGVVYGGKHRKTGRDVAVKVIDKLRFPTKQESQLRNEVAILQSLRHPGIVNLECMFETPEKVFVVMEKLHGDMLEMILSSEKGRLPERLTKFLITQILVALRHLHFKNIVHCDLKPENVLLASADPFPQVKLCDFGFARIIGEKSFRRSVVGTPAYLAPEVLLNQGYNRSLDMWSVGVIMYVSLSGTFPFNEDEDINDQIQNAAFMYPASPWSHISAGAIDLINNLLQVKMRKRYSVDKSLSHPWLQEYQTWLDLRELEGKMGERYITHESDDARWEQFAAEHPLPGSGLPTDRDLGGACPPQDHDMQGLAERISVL

PAK1 = PAK1 (Homo sapiens, UniProt Q13153); test: biochemical; conditions: read-out: %Ctrl @ 2000nM
NEK4 = NEK4 (Homo sapiens, UniProt P51957); test: biochemical; conditions: read-out: %Ctrl @ 2000nM
ACVR2A = ACVR2A (Homo sapiens, UniProt P27037); test: biochemical; conditions: read-out: %Ctrl @ 2000nM
MEK2 = MEK2 (Homo sapiens, UniProt P36507); test: biochemical; conditions: read-out: %Ctrl @ 2000nM
KIT(V559D) = KIT(V559D) (Homo sapiens, UniProt P10721, V559D); test: biochemical; conditions: read-out: %Ctrl @ 2000nM
PKN1 = PKN1 (Homo sapiens, UniProt Q16512); test: biochemical; conditions: read-out: %Ctrl @ 2000nM
caspase-3 in 786-O cells = conditions: 72 h, compounds at 20 μM
PIKFYVE = PIKFYVE (Homo sapiens, UniProt Q9Y2I7); test: biochemical; conditions: read-out: %Ctrl @ 2000nM
BTK = BTK (Homo sapiens, UniProt Q06187); test: biochemical; conditions: read-out: %Ctrl @ 2000nM
CDK7 = CDK7 (Homo sapiens, UniProt P50613); test: biochemical; conditions: read-out: %Ctrl @ 2000nM

CC(C)COC(=O)c1[nH]c2ccc(F)cc2c1-c1cn(CC2CCN(CCNS(=O)(=O)c3ccc(CC(C)C)cc3)CC2)nn1 [AB668, isobutyl 5-fluoro-3-(1-((1-(2-((4-isobutylphenyl)sulfonamido)ethyl)piperidin-4-yl)methyl)-1H-1,2,3-triazol-4-yl)-1H-indole-2-carboxylate]
remaining activity at 2 µM (EGFR(L747-T751del,Sins)): 86% | remaining activity at 2 µM (TGFBR2): 90% | remaining activity at 2 µM (MST1): 97% | remaining activity at 2 µM (MRCKB): 90% | remaining activity at 2 µM [1]: 97% | remaining activity at 2 µM (PIK3CA(E542K)): 99% | remaining activity at 2 µM (PFTK1): 84% | remaining activity at 2 µM (WNK3): 98% | remaining activity at 2 µM (GRK1): 80% | remaining activity at 2 µM (CAMK2B): 96% | remaining activity at 2 µM (MAP4K5): 96% | remaining activity at 2 µM [2]: 93% | remaining activity at 2 µM (DAPK1): 100% | remaining activity at 2 µM (TNK1): 96% | remaining activity at 2 µM (ERN1): 100% | pAKTS129 / AKT band quantification [3]: 0.8 and 0.5 | remaining activity at 2 µM (YSK4): 100% | remaining activity at 2 µM (FER): 100% | remaining activity at 2 µM (PAK7): 85% | remaining activity at 2 µM (PKNB(M.tuberculosis)): 100% | remaining activity at 2 µM (SgK110): 71% | remaining activity at 2 µM (FGFR4): 82% | remaining activity at 2 µM (MLK3): 99% | remaining activity at 2 µM (CAMK2G): 78% | remaining activity at 2 µM [4]: 80% | remaining activity at 2 µM [5]: 85% | remaining activity at 2 µM (ALK): 91% | remaining activity at 2 µM (ERK1): 75% | remaining activity at 2 µM (CSNK2A2 (CK2α′); read-out: %Ctrl @ 2000nM): 19% | inhibition at 2 µM (CSNK2A2 (CK2α′); read-out: inhibition (KINOMEscan profiling)): 81% | remaining activity at 2 µM (EPHA8): 92% | remaining activity at 2 µM (DCAMKL2): 93% | remaining activity at 2 µM (PRKD2): 88% | remaining activity at 2 µM (PAK1): 99% | remaining activity at 2 µM (NEK4): 86% | remaining activity at 2 µM (ACVR2A): 95% | remaining activity at 2 µM (MEK2): 96% | remaining activity at 2 µM (KIT(V559D)): 98% | remaining activity at 2 µM (PKN1): 91% | caspase-3 activation (caspase-3 in 786-O cells): induced caspase-3 activation | remaining activity at 2 µM (PIKFYVE): 1.7% | remaining activity at 2 µM (BTK): 100% | remaining activity at 2 µM (CDK7): 98%
